Source: US20250127787A1, “METHODS FOR TREATING PERIPHERAL NEUROPATHY” (University of Pittsburgh - Of the Commonwealth System of …, priority 2021, published 2025)
“Also recorded” adds a separate entry of the source.

How the values were obtained:
[1] = system: protein carbonylation; test: Protein carbonylation in CYP-CIPN rat hindpaw epidermis; type: in vivo; details: 8-AG 5 mg/kg/day in drinking water
Method: (§1) Animals. This study employed female Harlan Sprague Dawley (HSD) rats (3-4 mo; Envigo, Indianapolis, IN) and were divided into the following groups: 1) Control, 2) Cyclophosphamide (CYP, 75 mg/kg i.p. in saline vehicle; administered on days 0, 3 and 6); 3) 8-aminoguanine (8-AG; 5 mg/kg/day in drinking water; beginning 2 weeks prior to CYP and continuing until sacrifice (day 8)). The dose of 8-AG is based on our preliminary and published experiments. […] The investigation conforms to the Guide for the Care and Use of Laboratory Animals published by the US National Institutes of Health (NIH Publication No. 85-23, revised 1996). […]
(§2) Western immunoblotting: Following the testing paradigms, rats were deeply anesthetized and tissues (e.g., epidermis, peripheral sciatic nerves, spinal cord segments (L3-L5) and dorsal root ganglia (L3-L5) were removed, and a portion of each preparation was homogenized using Lysing Matrix D in a FASTPREP® 24 instrument (MP Biomedicals, Solon, OH) in HBSS [5 mM KCl, 0.3 mM KH2PO4, 138 mM NaCl, 4 mM NaHO3, 0.3 mM Na2HCO3, 0.3 mM Na2HPO4, 5.6 mM glucose and 10 mM Hepes, pH 7.4 containing complete protease inhibitor cocktail (1 tablet/10 ml, Roche, Indianapolis, IN)] and phosphatase inhibitor cocktail (Sigma, 1:100). […] The protein concentrations of the supernatants were determined using the Pierce BCA protein assay (Thermo Scientific, Rockford, IL). […]

[2] = system: IBA-1; test: Microglial IBA-1 expression and activation in CYP-CIPN rats; type: in vivo, rat; details: oral 8-AG; for effect on CYP-induced increase in IBA-1 expression (microglia): Western immunoblotting
Method: Animals: This study employed female Harlan Sprague Dawley (HSD) rats (3-4 mo; Envigo, Indianapolis, IN) and were divided into the following groups: 1) Control, 2) Cyclophosphamide (CYP, 75 mg/kg i.p. in saline vehicle; administered on days 0, 3 and 6 until sacrifice on day 8); 4) Paclitaxel (2 mg/kg i.p., 2 mg/kg i.p. in saline from a stock solution of 50/50 CremophorEL/ethanol); administered on days 0, 2, 4 and 6 until sacrifice on day 8; 4) 8-aminoguanine (8-AG; 5 mg/kg/day in drinking water; beginning 2 weeks prior to either CYP or PAC and continuing until sacrifice (day 8)). The dose of 8-AG was based on the experiments described above. […] All tissues (spinal cord and hindpaw epidermis) were removed from isoflurane anesthetized rats and the tissue was used for various experimental approaches as described below. At the end of tissue removal, animals were sacrificed by thoracotomy.
Thus, the effectiveness of 8-aminoguanine in CYP—CIPN microglial expression and activation was evaluated.

[3] = system: mitofusin 2 (MFN2); test: MFN2 expression in CYP-CIPN rat hindpaw epidermis, Western immunoblotting; type: in vivo; details: 8-AG 5 mg/kg/day in drinking water
Method: as §1, §2

Nc1nc2[nH]c(N)nc2c(=O)[nH]1 [8-AG, 8-Aminoguanine]
effect on CYP-induced protein carbonylation [1]: completely prevents; also recorded: restored values to that of a control state
effect on CYP-induced increase in IBA-1 expression (microglia) [2]: normalized
effect on CYP-induced increase in IBA-1 expression (microglia) ([2]; listed as 8-aminoguanine): reversed; also recorded: normalized
effect on CYP-induced increase in spinal IBA-1 activation ([2]; measured by densitometry): normalized
effect on CYP-induced decrease in MFN2 expression [3]: reversed
